Experiments:
Test in all cases: relative viability (nuclei count vs DMSO), 5 days (fraction); higher = more cells survive
Afatinib + Linsitinib = compound: CN(C)C/C=C/C(=O)Nc1cc2c(Nc3ccc(F)c(Cl)c3)ncnc2cc1O[C@H]1CCOC1 [Afatinib] + C[C@]1(O)C[C@@H](c2nc(-c3ccc4ccc(-c5ccccc5)nc4c3)c3c(N)nccn32)C1 [Linsitinib] (partner 1 µM)
Outline: (§1)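 Lung cancer cell lines, seeded in 1536-well plates, were treated the following day by pin tool with a single drug or with five library-drug doses (not always all listed) in √10 steps on top of a fixed anchor-drug dose. Cells were fixed and nuclei stained in one step after 5 days, and nuclei were counted. Relative viability is the nuclei count for treated wells divided by that for vehicle wells, reported as medians of duplicate plates.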

Afatinib + Pemetrexed = compound: CN(C)C/C=C/C(=O)Nc1cc2c(Nc3ccc(F)c(Cl)c3)ncnc2cc1O[C@H]1CCOC1 [Afatinib] + Nc1nc2[nH]cc(CCc3ccc(C(=O)N[C@@H](CCC(=O)O)C(=O)O)cc3)c2c(=O)[nH]1 [Pemetrexed] (partner 0.2 µM)
Outline: as §1

Afatinib + Vorinostat = compound: CN(C)C/C=C/C(=O)Nc1cc2c(Nc3ccc(F)c(Cl)c3)ncnc2cc1O[C@H]1CCOC1 [Afatinib] + O=C(CCCCCCC(=O)Nc1ccccc1)NO [Vorinostat] (partner 1 µM)
Outline: as §1

Afatinib + Olaparib = compound: CN(C)C/C=C/C(=O)Nc1cc2c(Nc3ccc(F)c(Cl)c3)ncnc2cc1O[C@H]1CCOC1 [Afatinib] + O=C(c1cc(Cc2n[nH]c(=O)c3ccccc23)ccc1F)N1CCN(C(=O)C2CC2)CC1 [Olaparib] (partner 8 µM)
Outline: as §1

With NCI-H322M the relative viability (Afatinib + Linsitinib; first compound 0.005 µM) was 0.847, the relative viability (Afatinib + Linsitinib; first compound 0.01581 µM) was 0.616 and the relative viability (Afatinib + Linsitinib; first compound 0.05 µM) was 0.468. For the same cell line, the relative viability (Afatinib + Linsitinib; first compound 0.1581 µM) was 0.419, the relative viability (Afatinib + Linsitinib; first compound 0.5 µM) was 0.588 and the relative viability (Afatinib + Pemetrexed; first compound 0.005 µM) was 0.563. The relative viability (Afatinib + Pemetrexed; first compound 0.01581 µM) was 0.534, the relative viability (Afatinib + Pemetrexed; first compound 0.05 µM) was 0.523 and the relative viability (Afatinib + Pemetrexed; first compound 0.1581 µM) was 0.531. For the same cell line, the relative viability (Afatinib + Pemetrexed; first compound 0.5 µM) was 0.509, the relative viability (Afatinib + Vorinostat; first compound 0.005 µM) was 0.825 and the relative viability (Afatinib + Vorinostat; first compound 0.01581 µM) was 0.506. The relative viability (Afatinib + Vorinostat; first compound 0.05 µM) was 0.658, the relative viability (Afatinib + Vorinostat; first compound 0.1581 µM) was 0.61 and the relative viability (Afatinib + Vorinostat; first compound 0.5 µM) was 0.567. The relative viability (Afatinib + Olaparib; first compound 0.005 µM) was 0.743, the relative viability (Afatinib + Olaparib; first compound 0.01581 µM) was 0.573 and the relative viability (Afatinib + Olaparib; first compound 0.05 µM) was 0.559. It also gave a relative viability (Afatinib + Olaparib; first compound 0.1581 µM) of 0.559 and a relative viability (Afatinib + Olaparib; first compound 0.5 µM) of 0.531.

NCI-H358 showed a relative viability (Afatinib + Linsitinib; first compound 0.005 µM) of 0.466, a relative viability (Afatinib + Linsitinib; first compound 0.01581 µM) of 0.329 and a relative viability (Afatinib + Linsitinib; first compound 0.05 µM) of 0.366. For the same cell line, the relative viability (Afatinib + Linsitinib; first compound 0.1581 µM) was 0.318, the relative viability (Afatinib + Linsitinib; first compound 0.5 µM) was 0.264 and the relative viability (Afatinib + Pemetrexed; first compound 0.005 µM) was 0.16. For the same cell line, the relative viability (Afatinib + Pemetrexed; first compound 0.01581 µM) was 0.146, the relative viability (Afatinib + Pemetrexed; first compound 0.05 µM) was 0.153 and the relative viability (Afatinib + Pemetrexed; first compound 0.1581 µM) was 0.137. The relative viability (Afatinib + Pemetrexed; first compound 0.5 µM) was 0.141, the relative viability (Afatinib + Vorinostat; first compound 0.005 µM) was 0.514 and the relative viability (Afatinib + Vorinostat; first compound 0.01581 µM) was 0.432. For the same cell line, the relative viability (Afatinib + Vorinostat; first compound 0.05 µM) was 0.375, the relative viability (Afatinib + Vorinostat; first compound 0.1581 µM) was 0.207 and the relative viability (Afatinib + Vorinostat; first compound 0.5 µM) was 0.253. It also gave a relative viability (Afatinib + Olaparib; first compound 0.005 µM) of 0.48, a relative viability (Afatinib + Olaparib; first compound 0.01581 µM) of 0.586 and a relative viability (Afatinib + Olaparib; first compound 0.05 µM) of 0.314. It also gave a relative viability (Afatinib + Olaparib; first compound 0.1581 µM) of 0.145.

For NCI-H441, the relative viability (Afatinib + Linsitinib; first compound 0.005 µM) was 0.529, the relative viability (Afatinib + Linsitinib; first compound 0.01581 µM) was 0.523 and the relative viability (Afatinib + Linsitinib; first compound 0.05 µM) was 0.516. For the same cell line, the relative viability (Afatinib + Linsitinib; first compound 0.1581 µM) was 0.503, the relative viability (Afatinib + Linsitinib; first compound 0.5 µM) was 0.425 and the relative viability (Afatinib + Pemetrexed; first compound 0.005 µM) was 0.255. It also gave a relative viability (Afatinib + Pemetrexed; first compound 0.01581 µM) of 0.246, a relative viability (Afatinib + Pemetrexed; first compound 0.05 µM) of 0.25 and a relative viability (Afatinib + Pemetrexed; first compound 0.1581 µM) of 0.283. For the same cell line, the relative viability (Afatinib + Pemetrexed; first compound 0.5 µM) was 0.274, the relative viability (Afatinib + Vorinostat; first compound 0.005 µM) was 0.791 and the relative viability (Afatinib + Vorinostat; first compound 0.01581 µM) was 0.94. For the same cell line, the relative viability (Afatinib + Vorinostat; first compound 0.05 µM) was 0.737, the relative viability (Afatinib + Vorinostat; first compound 0.1581 µM) was 0.878 and the relative viability (Afatinib + Vorinostat; first compound 0.5 µM) was 0.698. The relative viability (Afatinib + Olaparib; first compound 0.005 µM) was 0.491, the relative viability (Afatinib + Olaparib; first compound 0.01581 µM) was 0.521 and the relative viability (Afatinib + Olaparib; first compound 0.05 µM) was 0.649. The relative viability (Afatinib + Olaparib; first compound 0.1581 µM) was 0.441 and the relative viability (Afatinib + Olaparib; first compound 0.5 µM) was 0.512.

For NCI-H460, the relative viability (Afatinib + Linsitinib; first compound 0.005 µM) was 0.74, the relative viability (Afatinib + Linsitinib; first compound 0.01581 µM) was 0.713 and the relative viability (Afatinib + Linsitinib; first compound 0.05 µM) was 0.905. It also gave a relative viability (Afatinib + Linsitinib; first compound 0.1581 µM) of 0.866, a relative viability (Afatinib + Linsitinib; first compound 0.5 µM) of 0.796 and a relative viability (Afatinib + Pemetrexed; first compound 0.005 µM) of 0.0534. For the same cell line, the relative viability (Afatinib + Pemetrexed; first compound 0.01581 µM) was 0.0601, the relative viability (Afatinib + Pemetrexed; first compound 0.05 µM) was 0.0633 and the relative viability (Afatinib + Pemetrexed; first compound 0.1581 µM) was 0.0503. The relative viability (Afatinib + Pemetrexed; first compound 0.5 µM) was 0.0638, the relative viability (Afatinib + Vorinostat; first compound 0.005 µM) was 0.892 and the relative viability (Afatinib + Vorinostat; first compound 0.01581 µM) was 0.767. The relative viability (Afatinib + Vorinostat; first compound 0.05 µM) was 0.722, the relative viability (Afatinib + Vorinostat; first compound 0.1581 µM) was 0.702 and the relative viability (Afatinib + Vorinostat; first compound 0.5 µM) was 0.686. For the same cell line, the relative viability (Afatinib + Olaparib; first compound 0.005 µM) was 0.373, the relative viability (Afatinib + Olaparib; first compound 0.01581 µM) was 0.407 and the relative viability (Afatinib + Olaparib; first compound 0.05 µM) was 0.439. The relative viability (Afatinib + Olaparib; first compound 0.1581 µM) was 0.458 and the relative viability (Afatinib + Olaparib; first compound 0.5 µM) was 0.491.

In the case of NCI-H520, the relative viability (Afatinib + Linsitinib; first compound 0.005 µM) is reported as 0.983, the relative viability (Afatinib + Linsitinib; first compound 0.01581 µM) is reported as 0.998 and the relative viability (Afatinib + Linsitinib; first compound 0.05 µM) is reported as 0.992. For the same cell line, the relative viability (Afatinib + Linsitinib; first compound 0.1581 µM) was 0.931, the relative viability (Afatinib + Linsitinib; first compound 0.5 µM) was 0.802 and the relative viability (Afatinib + Pemetrexed; first compound 0.005 µM) was 0.771. For the same cell line, the relative viability (Afatinib + Pemetrexed; first compound 0.01581 µM) was 0.717, the relative viability (Afatinib + Pemetrexed; first compound 0.05 µM) was 0.749 and the relative viability (Afatinib + Pemetrexed; first compound 0.1581 µM) was 0.725. For the same cell line, the relative viability (Afatinib + Pemetrexed; first compound 0.5 µM) was 0.668, the relative viability (Afatinib + Vorinostat; first compound 0.005 µM) was 0.807 and the relative viability (Afatinib + Vorinostat; first compound 0.01581 µM) was 0.707. The relative viability (Afatinib + Vorinostat; first compound 0.05 µM) was 0.639, the relative viability (Afatinib + Vorinostat; first compound 0.1581 µM) was 0.698 and the relative viability (Afatinib + Vorinostat; first compound 0.5 µM) was 0.717. For the same cell line, the relative viability (Afatinib + Olaparib; first compound 0.005 µM) was 0.313, the relative viability (Afatinib + Olaparib; first compound 0.01581 µM) was 0.32 and the relative viability (Afatinib + Olaparib; first compound 0.05 µM) was 0.329. The relative viability (Afatinib + Olaparib; first compound 0.1581 µM) was 0.365 and the relative viability (Afatinib + Olaparib; first compound 0.5 µM) was 0.368.

With NCI-H596 the relative viability (Afatinib + Linsitinib; first compound 0.005 µM) was 1.06, the relative viability (Afatinib + Linsitinib; first compound 0.01581 µM) was 1.16 and the relative viability (Afatinib + Linsitinib; first compound 0.05 µM) was 1.1. The relative viability (Afatinib + Linsitinib; first compound 0.1581 µM) was 1.02, the relative viability (Afatinib + Linsitinib; first compound 0.5 µM) was 0.888 and the relative viability (Afatinib + Pemetrexed; first compound 0.005 µM) was 0.537. It also gave a relative viability (Afatinib + Pemetrexed; first compound 0.01581 µM) of 0.492, a relative viability (Afatinib + Pemetrexed; first compound 0.05 µM) of 0.504 and a relative viability (Afatinib + Pemetrexed; first compound 0.1581 µM) of 0.548. The relative viability (Afatinib + Pemetrexed; first compound 0.5 µM) was 0.489, the relative viability (Afatinib + Vorinostat; first compound 0.005 µM) was 0.706 and the relative viability (Afatinib + Vorinostat; first compound 0.01581 µM) was 0.541. The relative viability (Afatinib + Vorinostat; first compound 0.05 µM) was 0.571, the relative viability (Afatinib + Vorinostat; first compound 0.1581 µM) was 0.745 and the relative viability (Afatinib + Vorinostat; first compound 0.5 µM) was 0.62. It also gave a relative viability (Afatinib + Olaparib; first compound 0.005 µM) of 0.706, a relative viability (Afatinib + Olaparib; first compound 0.01581 µM) of 0.707 and a relative viability (Afatinib + Olaparib; first compound 0.05 µM) of 0.697. It also gave a relative viability (Afatinib + Olaparib; first compound 0.1581 µM) of 0.58 and a relative viability (Afatinib + Olaparib; first compound 0.5 µM) of 0.685.

For NCI-H647, the relative viability (Afatinib + Linsitinib; first compound 0.005 µM) was 1.1, the relative viability (Afatinib + Linsitinib; first compound 0.01581 µM) was 1.22 and the relative viability (Afatinib + Linsitinib; first compound 0.05 µM) was 1.24. It also gave a relative viability (Afatinib + Linsitinib; first compound 0.1581 µM) of 1.27, a relative viability (Afatinib + Linsitinib; first compound 0.5 µM) of 1.18 and a relative viability (Afatinib + Pemetrexed; first compound 0.005 µM) of 0.174. For the same cell line, the relative viability (Afatinib + Pemetrexed; first compound 0.01581 µM) was 0.169, the relative viability (Afatinib + Pemetrexed; first compound 0.05 µM) was 0.179 and the relative viability (Afatinib + Pemetrexed; first compound 0.1581 µM) was 0.188. The relative viability (Afatinib + Pemetrexed; first compound 0.5 µM) was 0.107, the relative viability (Afatinib + Vorinostat; first compound 0.005 µM) was 0.493 and the relative viability (Afatinib + Vorinostat; first compound 0.01581 µM) was 0.513. The relative viability (Afatinib + Vorinostat; first compound 0.05 µM) was 0.595, the relative viability (Afatinib + Vorinostat; first compound 0.1581 µM) was 0.523 and the relative viability (Afatinib + Vorinostat; first compound 0.5 µM) was 0.524. It also gave a relative viability (Afatinib + Olaparib; first compound 0.005 µM) of 0.559, a relative viability (Afatinib + Olaparib; first compound 0.01581 µM) of 0.563 and a relative viability (Afatinib + Olaparib; first compound 0.05 µM) of 0.526. The relative viability (Afatinib + Olaparib; first compound 0.1581 µM) was 0.414 and the relative viability (Afatinib + Olaparib; first compound 0.5 µM) was 0.552.

Source: the supplement of paper PMC10307832
